Earlier results, collected in patent publication US9725402B2, “Nitroso compounds as nitroxyl donors and methods of use thereof” (priority 2008, dated 2017).

Key:
pheochromocytoma = conditions: subcutaneous xenograft, dose nontoxic to nude mice
[1] = system: cultured breast cancer cells
breast cancer cells = conditions: mouse xenograft model
[2] = system: myocardial ischemia/reperfusion injury; conditions: administered during ischemia and 5 minutes prior to reperfusion, anesthetized rabbits

Compound | toxicity to cancer cells (cancer cells; pH 7.4) | cytotoxicity to cancer cells (cancer cells; weakly acidic solutions) | tumor growth (pheochromocytoma) | proliferation of cultured breast cancer cells [1] | tumor mass (breast cancer cells) | myocardial ischemia/reperfusion injury [2] | pH at which compound is a nitroxyl donor (nitroxyl donor only at high pH) | species donated under physiological conditions (physiological conditions, oxidative pathway)
[Na+].[Na+].[O-][N+]([O-])=NO [Angeli's salt, sodium α-oxyhyponitrite] | no toxicity | strong cytotoxicity | inhibit tumor growth | inhibits the proliferation | decreases tumor mass | increased myocardial ischemia/reperfusion injury |  | 
O=S(=O)(NO)c1ccccc1 [PA, N-hydroxybenzenesulfonamide] |  |  |  |  |  |  | > 9 | nitric oxide donor
